{"source": "patent US10925840B2", "about": "“Use of fenoterol and fenoterol analogues in the treatment of glioblastomas and astrocytomas” (priority 2010, dated 2021)", "key": {"human β2-AR": {"target": "human β2-AR (Homo sapiens (Human), UniProt P07550)"}, "β2-AR": {"target": "β2-AR", "details": "previously reported; cited from earlier work"}, "β1-AR": {"target": "β1-AR (Rattus norvegicus (Rat), UniProt P18090)", "sequence (P18090 whole entry)": "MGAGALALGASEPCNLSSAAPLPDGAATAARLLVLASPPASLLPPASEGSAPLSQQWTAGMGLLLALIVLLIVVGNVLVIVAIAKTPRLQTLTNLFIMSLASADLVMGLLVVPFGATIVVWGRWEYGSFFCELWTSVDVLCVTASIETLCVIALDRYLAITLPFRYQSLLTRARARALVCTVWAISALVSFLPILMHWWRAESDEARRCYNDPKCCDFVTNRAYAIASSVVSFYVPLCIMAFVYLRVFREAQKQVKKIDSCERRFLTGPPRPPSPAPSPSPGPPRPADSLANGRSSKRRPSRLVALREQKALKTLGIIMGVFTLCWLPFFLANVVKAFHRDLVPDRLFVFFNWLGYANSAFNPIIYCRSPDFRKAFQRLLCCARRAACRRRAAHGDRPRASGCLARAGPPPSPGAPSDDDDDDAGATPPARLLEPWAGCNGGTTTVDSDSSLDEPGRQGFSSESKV", "details": "read-out: Ki β1; Ki ± SEM, n=3"}, "1321N1 cells [1]": {"tested_on": "1321N1 cells", "experiment": "Inhibition of mitogenesis, [3H]-thymidine incorporation in 1321N1 cells", "assay_type": "cell-based, human"}, "[2]": {"details": "IV 5 mg/kg"}, "[3]": {"experiment": "Brain and plasma distribution after single IV administration in rats", "assay_type": "in vivo, male Sprague-Dawley rats", "experimental": "An overview of the research study design for evaluating the brain-to-plasma distribution of [^3H]\n(specific activity 57 Ci/mmol); vehicle was sterile saline, 0.9% sodium chloride, USP. Dose formulations were prepared on the day of the study. The amount of radioactivity in the dose formulation was determined by liquid scintillation. The study lasted for an hour and radioactivity levels in plasma and brain tissue were evaluated at the conclusion of the study. Approximately 5 mls of whole blood was collected. Blood samples were collected via cardiac puncture, transferred into a tube containing K3EDTA as the anticoagulant and kept on wet ice until processed to plasma. To generate plasma, samples were centrifuged within 15 minutes of collection at 2,500 RPM for 15 minutes at room temperature. Plasma was divided equally into three labeled cryovials and stored on ample dry ice until transferred to a freezer set at ≤−20° C. for storage until analysis. Duplicate aliquots were weighed and then combined with scintillation cocktail. The [^3H] radioactivity was determined on a liquid scintillation counter. Brain samples were snap frozen in liquid nitrogen and stored at ≤−70° C. until analysis. Whole brain tissue was homogenized and the weight of the homogenate was determined. Duplicate aliquots from the homogenate were weighed, solubilized and then combined with scintillation cocktail. The [^3H] radioactivity was determined on a liquid scintillation counter."}, "rat cardiomyocyte": {"tested_on": "rat cardiomyocyte", "experiment": "Rat cardiomyocyte contractility model", "assay_type": "cell-based"}, "U118 cells": {"tested_on": "U118 cells", "details": "[3H]-thymidine incorporation"}, "1321N1 cells [4]": {"tested_on": "1321N1 cells", "experiment": "Cell cycle distribution by flow cytometry in 1321N1 cells", "details": "20 hours"}, "[5]": {"details": "rat, IV 5 mg/kg, 5 min, listed as [^3H]—(R,R)-methoxyfenoterol"}, "[6]": {"details": "rat, IV 5 mg/kg, 60 min, listed as [^3H]—(R,R)-methoxyfenoterol"}}, "note": "Several values for one entry are separate records, joined by “and”; a condition that tells them apart may be missing. Equal values may be shown once. Where a name gives a salt, the structure may show the parent alone. Read-outs that look alike come from different tables or passages of the source.", "data": [{"molecule": "C[C@H](Cc1cccc2ccccc12)NC[C@@H](O)c1cc(O)cc(O)c1.O=C(O)/C=C/C(=O)O", "note": "(racemic) [(S,R)-5, (S,R)-(+)-5-{1-hydroxy-2-[1-methyl-2-(1-naphthyl)ethylamino]ethyl}-1,3-benzenediol Fumarate]", "values": [{"measurement": "affinity for the β2-AR weaker than (R,R)-5", "setting": "human β2-AR", "result": 7, "unit": "fold"}]}, {"molecule": "(R,R)-TA-2005 [Compound 49]", "values": [{"measurement": "Ki", "setting": "β2-AR", "result": 12, "unit": "nM"}, {"measurement": "Ki β1/Ki β2 ratio", "setting": "β2-AR", "result": 53}]}, {"molecule": "Oc1cc(O)cc([C@H](O)CNCCc2ccccc2)c1", "note": "[(S)-7, (S)-(+)-5-(1-hydroxy-2-phenethylaminoethyl)-1,3-benzenediol Fumarate]", "values": [{"measurement": "Ki", "setting": "β1-AR", "result": "52.2 ± 3.01", "unit": "µM"}]}, {"molecule": "Cc1ccc(OCC(O)C(C)NC(C)C)c2c1CCC2", "note": "(stereo not shown) [ICI 118-551]", "values": [{"measurement": "shift of the (R,R)-fenoterol dose response curve", "setting": "1321N1 cells [1]; 1 nM and 3 nM", "result": "parallel rightward shift"}, {"measurement": "pA2 against inhibitory effect of (R,R)-fenoterol", "setting": "1321N1 cells [1]; [3H]-thymidine incorporation, 1321N1 cells", "result": 8.9}, {"measurement": "slope of competitive inhibition", "setting": "1321N1 cells [1]; [3H]-thymidine incorporation, versus (R,R)-fenoterol", "result": "−1.3±0.3"}]}, {"molecule": "NCC(O)c1ccc(O)c2[nH]c(=O)ccc12", "note": "(stereo not shown) [Compound 51]", "values": [{"measurement": "Ki β1/Ki β2 ratio", "setting": "β2-AR", "result": 1.3}]}, {"molecule": "C[C@@H](Cc1cccc2ccccc12)NC[C@H](O)c1cc(O)cc(O)c1.O=C(O)/C=C/C(=O)O", "note": "[(R,S)-5, (R,S)-(−)-5-{1-hydroxy-2-[1-methyl-2-(1-naphthyl)ethylamino]ethyl}-1,3-benzenediol Fumarate]", "values": [{"measurement": "plasma concentration, individual rat", "setting": "[2]; 240 min, listed as (R,S)-naphthylfenoterol, Fumarate", "result": "0.11 ug/ml (3×) and 0.13 ug/ml (2×)"}, {"measurement": "plasma concentration, individual rat", "setting": "[2]; 300 min, listed as (R,S)-naphthylfenoterol, Fumarate", "result": "0.10 ug/ml (2×) and 0.11 ug/ml (2×) and 0.12 ug/ml"}, {"measurement": "systemic exposure (AUC) compared to (R,R)-fenoterol", "setting": "[2]; rat", "result": "significantly higher"}, {"measurement": "plasma concentration, Average", "setting": "[2]; rat, 15 min", "result": 0.68, "unit": "µg/mL"}, {"measurement": "plasma concentration, Average", "setting": "[2]; rat, 30 min", "result": 0.43, "unit": "µg/mL"}, {"measurement": "plasma concentration, Average", "setting": "[2]; rat, 60 min", "result": 0.34, "unit": "µg/mL"}, {"measurement": "plasma concentration, Average", "setting": "[2]; rat, 120 min", "result": 0.24, "unit": "µg/mL"}, {"measurement": "plasma concentration, Average", "setting": "[2]; rat, 240 min", "result": 0.12, "unit": "µg/mL"}, {"measurement": "plasma concentration, Average", "setting": "[2]; rat, 300 min", "result": 0.11, "unit": "µg/mL"}, {"measurement": "plasma concentration, Average", "setting": "[2]; rat, 360 min", "result": 0.09, "unit": "µg/mL"}]}, {"molecule": "[3H]COc1ccc(C[C@@H](C)NC[C@H](O)c2cc(O)cc(O)c2)cc1", "note": "[[^3H]-(R,R)-methoxyfenoterol, [^3H]—(R,R)-methoxyfenoterol chloride]", "values": [{"measurement": "decrease of plasma level", "setting": "[3]; from 5 minutes to 60 minutes", "result": 62, "unit": "%"}, {"measurement": "passage through the blood brain barrier", "setting": "[3]; rat, IV", "result": "pass through the blood brain barrier"}, {"measurement": "Brain level, Mean", "setting": "[3]; rat, IV 5 mg/kg, 5 min", "result": 0.92, "unit": "μg-equiv/g"}, {"measurement": "Percent of Dose in Brain, Mean", "setting": "[3]; rat, IV 5 mg/kg, 5 min", "result": 0.14, "unit": "%"}, {"measurement": "Plasma level, Mean", "setting": "[3]; rat, IV 5 mg/kg, 5 min", "result": 3.25, "unit": "μg-equiv/ml"}, {"measurement": "Brain level, Mean", "setting": "[3]; [5]", "result": "0.92±0.10", "unit": "μg-equiv/g"}, {"measurement": "Plasma level, Mean", "setting": "[3]; [5]", "result": "3.25±0.15", "unit": "μg-equiv/ml"}, {"measurement": "Brain level, Mean", "setting": "[3]; rat, IV 5 mg/kg, 15 min", "result": 0.80, "unit": "μg-equiv/g"}, {"measurement": "Percent of Dose in Brain, Mean", "setting": "[3]; rat, IV 5 mg/kg, 15 min", "result": 0.12, "unit": "%"}, {"measurement": "Plasma level, Mean", "setting": "[3]; rat, IV 5 mg/kg, 15 min", "result": 1.79, "unit": "μg-equiv/ml"}, {"measurement": "Brain level, Mean", "setting": "[3]; rat, IV 5 mg/kg, 30 min", "result": 0.72, "unit": "μg-equiv/g"}, {"measurement": "Percent of Dose in Brain, Mean", "setting": "[3]; rat, IV 5 mg/kg, 30 min", "result": 0.11, "unit": "%"}, {"measurement": "Plasma level, Mean", "setting": "[3]; rat, IV 5 mg/kg, 30 min", "result": 1.53, "unit": "μg-equiv/ml"}, {"measurement": "Brain level, Mean", "setting": "[3]; rat, IV 5 mg/kg, 60 min", "result": 0.70, "unit": "μg-equiv/g"}, {"measurement": "Percent of Dose in Brain, Mean", "setting": "[3]; rat, IV 5 mg/kg, 60 min", "result": 0.11, "unit": "%"}, {"measurement": "Plasma level, Mean", "setting": "[3]; rat, IV 5 mg/kg, 60 min", "result": 1.24, "unit": "μg-equiv/ml"}, {"measurement": "Brain level, Mean", "setting": "[3]; [6]", "result": "0.70±0.37", "unit": "μg-equiv/g"}, {"measurement": "Plasma level, Mean", "setting": "[3]; [6]", "result": "1.24±0.43", "unit": "μg-equiv/ml"}, {"measurement": "percent dose found in the brain, any given animal", "setting": "[3]; rat, IV 5 mg/kg, over 60 minutes", "result": "no more than 0.17%"}]}, {"molecule": "CC(C)NCC(O)c1ccc(O)c2[nH]c(=O)ccc12", "note": "(stereo not shown) [Compound 50]", "values": [{"measurement": "Ki β1/Ki β2 ratio", "setting": "β2-AR", "result": 1.7}]}, {"molecule": "COc1ccc(C[C@@H](C)NC[C@H](O)c2cc(O)cc(O)c2)cc1.O=C(O)/C=C/C(=O)O", "note": "[(R,R)-2, (R,R)-(−)-1-p-Methoxyphenyl-2-(β-3′,5′-dihydroxy-phenyl-β-oxy)ethylamino-propane Fumarate]", "values": [{"measurement": "plasma concentration, individual rat", "setting": "[2]; 300 min, listed as (R,R)-methoxyfenoterol", "result": "0.06 ug/ml and 0.07 ug/ml (3×) and 0.09 ug/ml"}, {"measurement": "systemic exposure (AUC) compared to (R,R)-fenoterol", "setting": "[2]; rat", "result": "significantly higher"}, {"measurement": "B", "setting": "[2]; rat, two-compartment open model", "result": 0.3900, "unit": "µg/mL"}]}, {"molecule": "C[C@@H](Cc1ccc(O)cc1)NC[C@@H](O)c1cc(O)cc(O)c1", "note": "(racemic) [(S,S)-1, (S,S)-(±)-Fenoterol]", "values": [{"measurement": "EC50", "setting": "rat cardiomyocyte", "result": 55, "unit": "µM"}]}, {"molecule": "C[C@H](Cc1ccc(O)cc1)NC[C@H](O)c1cc(O)cc(O)c1", "note": "[(R,R)-1, (R,R)-(−)-Fenoterol]", "values": [{"measurement": "IC50 higher than the value calculated in 1321N1 cells", "setting": "U118 cells", "result": 50, "unit": "fold"}, {"measurement": "% Phase Distribution G2", "setting": "1321N1 cells [4]; 0.1 nM", "result": 1.8, "unit": "%"}, {"measurement": "% Phase Distribution G1", "setting": "1321N1 cells [4]; 10.0 nM", "result": 76.0, "unit": "%"}, {"measurement": "% Phase Distribution G2", "setting": "1321N1 cells [4]; 10.0 nM", "result": 2.1, "unit": "%"}, {"measurement": "% Phase Distribution G2", "setting": "1321N1 cells [4]; 1000 nM", "result": 0.7, "unit": "%"}]}, {"molecule": "O=C(O)/C=C/C(=O)O.Oc1cc(O)cc([C@@H](O)CNCCc2ccccc2)c1", "note": "[(R)-7, (R)-(−)-5-(1-Hydroxy-2-phenethylaminoethyl)-1,3-benzenediol fumarate]", "values": [{"measurement": "Ki", "setting": "β1-AR", "result": "42.5 ± 3.47", "unit": "µM"}, {"measurement": "Kiβ2 value higher than (R,S)-3", "setting": "human β2-AR; relative to (R,S)-3", "result": 32, "unit": "%"}]}]}
